Results on four compounds are retold here after PubChem BioAssay (NCI).

Some test systems named below: CAKI-1 renal; CCRF-CEM leukemia; HCC-2998 colon; HCT-15 colon; K-562 leukemia; MALME-3M melanoma; MDA-N; NCI-H460 lung; SF-539 CNS; SW-620 colon.
Test in all cases: DTP human tumour cell line panel, 48 h

Molecules are shown by their SMILES.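 Cultured in 96-well plates, cells were exposed to test compound for 48 hours across five concentrations. TGI denotes the concentration required for complete inhibition of growth.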 A value given as a limit tells only on which side of the number the result lay.

Take `C(=C\c1ccccc1)/C=N/c1nc2cc3sc(/N=C/C=C/c4ccccc4)nc3cc2s1`: the TGI in the assay with CAKI-1 renal, in the assay on CCRF-CEM leukemia, with HCC-2998 colon, with HCT-15 colon, in the assay on K-562 leukemia and in the assay with MALME-3M melanoma was above 100 µM each time. The TGI in the assay on MDA-N, in the assay with NCI-H460 lung, with SF-539 CNS and with SW-620 colon was above 100 µM in each case.

Take `Cc1sc(/N=C/c2c[nH]c3ccccc23)c(C#N)c1C`: the total growth inhibition concentration (TGI) was above 100 µM with CAKI-1 renal; 58.3 µM in the assay with CCRF-CEM leukemia; 70.5 µM in the assay on HCC-2998 colon; above 100 µM with HCT-15 colon; above 100 µM in the assay with K-562 leukemia; above 100 µM with MALME-3M melanoma. Besides, the TGI in the assay on MDA-N, in the assay with NCI-H460 lung, with SF-539 CNS and in the assay with SW-620 colon was above 100 µM in each case.

For `C=CCSC1=N/C(=C\c2ccccc2)C(=O)N1CC=C`, the TGI is above 100 µM in the assay on CAKI-1 renal; 49.8 µM in the assay on CCRF-CEM leukemia; above 100 µM with HCC-2998 colon; above 100 µM in the assay on HCT-15 colon; above 100 µM in the assay with K-562 leukemia; above 100 µM in the assay with MALME-3M melanoma. In addition, the concentration for total growth inhibition (TGI) with MDA-N, in the assay with NCI-H460 lung, in the assay with SF-539 CNS and with SW-620 colon was above 100 µM each time.

Consider `COC(=O)/C=C1\CCC(C)(C(=O)NS(=O)(=O)c2ccc(C)cc2)C1(C)C` (stereo not given), for which the TGI in the assay on CAKI-1 renal, in the assay on CCRF-CEM leukemia, in the assay with HCC-2998 colon, in the assay on HCT-15 colon, with K-562 leukemia and with MALME-3M melanoma was above 100 µM each time. Moreover, the TGI with MDA-N, with NCI-H460 lung, in the assay on SF-539 CNS and in the assay with SW-620 colon was above 100 µM in each case.
